The values that follow come from paper PMC6320962, “Synthesis, Experimental and Density Functional Theory (DFT) Studies on Solubility of Camptothecin Derivatives” (Molecules, 2018).

For series [1] the following is noted: in words; cited from earlier work.
Another series concerns wild-type HIV-1. Also noted: method as in PMID 21344906. The following applies: cited from earlier work.
The conditions of series [2]: clinical trial, early 1970s; cited from earlier work.

The structures appear in SMILES notation.

As to `CC[C@@]1(O)C(=O)OCc2c1cc1n(c2=O)Cc2cc3ccccc3nc2-1` [CPT, Camptothecin], the water solubility entry in series [1] is on record as “negligible water solubility”.

For the compound `CC[C@@]1(O)C(=O)OCc2c1cc1n(c2=O)Cc2c-1nc1ccc(C3CCCCC3)cc1c2C` [P210, 10-Cyclohexyl-7-methyl-20(S)-camptothecin], the melting point (usually the temperature of the solid-liquid transition) is 243 to 245 °C.

As for `Cc1cc(/C=C/C#N)cc(C)c1Nc1ccnc(Nc2ccc(C#N)cc2)n1` [rilpivirine], the 50% effective concentration (EC50) (usually the midpoint of the concentration-response curve) in the series with wild-type HIV-1 is 0.67 nM.

`CC[C@@]1(O)C(=O)OCc2c1cc1n(c2=O)Cc2c-1nc1ccc(N3CCOCC3)cc1c2C` [P211, 7-Methyl-10-morpholino-20(S)-camptothecin] returned a melting point of 283 to 285 °C.

With `CC[C@@](O)(C(=O)[O-])c1cc2n(c(=O)c1CO)Cc1cc3ccccc3nc1-2.[Na+]` [compound 15], in series [2], the efficacy result was “low efficacy”; the side effects result is “unpredictable and severe side effects, including hemorrhagic cystitis and myelotoxicity”.
